Values of other authors as cited in patent publication US8796195B2 (priority 2007, dated 2014).
Values joined by “and” are separate entries in the source; they are usually repeats but may differ in a detail not shown here. Identical values can stand only once.

What was measured:
[1] = based on 48% tetrafluoroboric acid

SMILES	pKa	LD50 (toxic by ingestion) [1]
F [HF, hydrofluoric acid]	3.4 and ~3.5	
F[B-](F)(F)F.[H+] [Tetrafluoroboric acid, tetrafluoroboric acid]	approximately −3	100 to 464 mg/kg
